Measurements: ChEMBL document CHEMBL1158996, “Antiviral phloroglucinols from New Zealand Kunzea species” (1992)

Experiments:
[1] = tested on: Poliovirus 1; assay: Antiviral activity against Poliovirus type 1 assessed as inhibition of virus-induced cytopathic effect at 5 ug/disk; type: functional; settings: Enterovirus C; read-out: IZ
[2] = tested on: Human alphaherpesvirus 1; assay: Antiviral activity against Herpes simplex virus type 1 assessed as inhibition of virus-induced cytopathic effect at 5 ug/disk; type: functional; settings: read-out: IZ

Row | SMILES | zone of inhibition at 5 µg/disc [1] [mm] | zone of inhibition at 5 µg/disc [2] [mm]
1 | COc1cc(O)c(C(=O)C(C)C)c(O)c1 | 17 | 17
2 | COc1cc(O)cc(O)c1C(=O)C(C)C [ROBUSTAOL B] | 17 | 17
